Source: ChEMBL document CHEMBL5214895, “3-Hydroxy-propanamidines, a New Class of Orally Active Antimalarials Targeting Plasmodium falciparum” (J Med Chem, 2021)
Activity calls are given as the source filed them. The rule behind the calls is not given here.

How the values were obtained:
Plasmodium falciparum [1] = assay: Antiplasmodial activity against chloroquine-sensitive asexual blood stage Plasmodium falciparum 3D7 assessed as inhibition of parasite growth incubated for […] by HRP2-ELISA; type: functional, organism-based
Plasmodium falciparum [2] = assay: Antiplasmodial activity against multidrug resistant asexual blood stage Plasmodium falciparum Dd2 assessed as inhibition of parasite growth incubated for […] by HRP2-ELISA; type: functional, organism-based
[3] = Cytotoxicity against human HepG2 cells assessed as inhibition of cell growth incubated for 24 hrs by neutral red dye based analysis; type: toxicity
[4] = Selectivity index, ratio of IC50 for cytotoxicity against human HepG2 cells to IC50 for antiplasmodial activity against chloroquine-sensitive asexual blood stage Plasmodium falciparum 3D7; type: toxicity, cell-based; settings: read-out: Ratio IC50
[5] = Cytotoxicity against human HeLa cells assessed as inhibition of cell growth incubated for 24 hrs by neutral red dye based analysis; type: toxicity
[6] = Cytotoxicity against HEK293 cells assessed as inhibition of cell growth incubated for 24 hrs by neutral red dye based analysis; type: toxicity; settings: human
[7] = Chemical stability of compound in Tween20/ethanol/phosphate buffer at pH 7.5 assessed as drug degradation measured over 24 hrs; type: physicochemical; settings: read-out: Drug degradation
[8] = Chemical stability of compound in Tween20/ethanol/phosphate buffer at pH 2 assessed as drug degradation measured over 24 hrs; type: physicochemical; settings: read-out: Drug degradation
[9] = Metabolic stability in human liver microsomes assessed as parent compound remaining at 2 uM incubated for 40 mins in presence of NADPH by LC-MS/MS analysis; type: ADME, Microsome; settings: read-out: Stability
[10] = Metabolic stability in human liver microsomes assessed as intrinsic clearance; type: ADME, Microsome
[11] = biological target: Voltage-gated inwardly rectifying potassium channel KCNH2 (Homo sapiens, UniProt Q12809); assay: Inhibition of hERG by fluorescence polarization assay; type: toxicity
Voltage-gated inwardly rectifying potassium channel KCNH2, sequence (Q12809 whole entry): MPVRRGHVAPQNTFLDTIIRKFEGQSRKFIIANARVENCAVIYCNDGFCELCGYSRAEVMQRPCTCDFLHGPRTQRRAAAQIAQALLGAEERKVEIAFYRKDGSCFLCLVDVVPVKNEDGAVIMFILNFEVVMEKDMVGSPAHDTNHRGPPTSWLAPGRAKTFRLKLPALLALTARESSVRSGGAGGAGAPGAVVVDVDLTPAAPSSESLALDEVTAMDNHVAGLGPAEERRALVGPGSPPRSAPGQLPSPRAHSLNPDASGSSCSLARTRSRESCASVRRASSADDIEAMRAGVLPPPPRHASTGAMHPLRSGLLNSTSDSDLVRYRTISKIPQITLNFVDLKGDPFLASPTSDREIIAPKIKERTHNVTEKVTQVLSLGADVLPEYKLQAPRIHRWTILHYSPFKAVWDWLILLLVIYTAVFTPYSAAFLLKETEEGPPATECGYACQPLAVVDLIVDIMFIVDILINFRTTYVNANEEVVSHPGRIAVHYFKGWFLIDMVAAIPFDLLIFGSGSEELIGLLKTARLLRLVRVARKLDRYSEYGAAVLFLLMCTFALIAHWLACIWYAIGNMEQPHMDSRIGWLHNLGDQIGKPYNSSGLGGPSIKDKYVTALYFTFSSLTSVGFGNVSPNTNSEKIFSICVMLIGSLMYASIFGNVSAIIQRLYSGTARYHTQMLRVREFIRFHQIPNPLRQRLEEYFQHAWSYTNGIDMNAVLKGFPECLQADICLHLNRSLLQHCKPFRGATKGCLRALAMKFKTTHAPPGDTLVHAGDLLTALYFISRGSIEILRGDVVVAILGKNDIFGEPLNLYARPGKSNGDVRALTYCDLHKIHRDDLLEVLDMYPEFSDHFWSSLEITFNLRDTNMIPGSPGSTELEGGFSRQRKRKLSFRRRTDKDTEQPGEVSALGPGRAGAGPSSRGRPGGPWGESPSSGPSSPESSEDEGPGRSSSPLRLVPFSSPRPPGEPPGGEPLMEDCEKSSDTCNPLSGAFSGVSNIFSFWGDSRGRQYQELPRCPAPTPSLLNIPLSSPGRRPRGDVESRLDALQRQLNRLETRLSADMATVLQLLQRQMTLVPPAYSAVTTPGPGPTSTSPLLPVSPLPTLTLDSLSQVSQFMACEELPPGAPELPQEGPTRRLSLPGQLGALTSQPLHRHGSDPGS

Plasmodium falciparum [12] = assay: Antiplasmodial activity against sorbitol-synchronized early ring stage plasmodium falciparum NF54 trophozoites assessed as inhibition of parasite growth incubated for 72 hrs by SYBR green-based parasite susceptibility assay; type: functional, organism-based; settings: NF54, 72 h
Plasmodium falciparum [13] = assay: Inhibition of hemozoin formation in sorbitol-synchronized early ring stage plasmodium falciparum NF54 trophozoites assessed as increase in free heme level at 2.5 times IC50 incubated for 28 hrs by flow cytometry analysis; type: functional
Plasmodium falciparum [14] = assay: Inhibition of hemozoin formation in sorbitol-synchronized early ring stage plasmodium falciparum NF54 trophozoites assessed as reduction in hemozoin level at 2.5 times IC50 incubated for 28 hrs by flow cytometry analysis; type: functional
Plasmodium falciparum [15] = assay: Antiplasmodial activity against multidrug resistant asexual blood stage Plasmodium falciparum Dd2-B2 assessed as inhibition of parasite growth incubated for 72 hrs by SYBR green-based assay; type: functional, organism-based; settings: Dd2-B2, 72 h
Plasmodium falciparum [16] = assay: Antiplasmodial activity against hyper mutating Plasmodium falciparum Dd2 harboring proofreading-deficient DNA polymerase delta assessed as inhibition of parasite growth incubated for 72 hrs by SYBR green-based assay; type: functional, organism-based; settings: Dd2, 72 h
Plasmodium falciparum [17] = assay: Induction of drug resistance in Plasmodium falciparum Dd2 clone FL2-C4 assessed as fold increase in IC50 incubated for 72 hrs by SYBR green-based assay; type: functional
Plasmodium falciparum [18] = assay: Induction of drug resistance in Plasmodium falciparum Dd2 clone FL3-C3 assessed as fold increase in IC50 incubated for 72 hrs by SYBR green-based assay; type: functional
Plasmodium berghei [19] = assay: Antimalarial activity against Plasmodium berghei infected in mouse assessed as reduction in parasitemia in blood at 30 mg/kg, po administered for 4 times starting from 4 to 72 hrs and measured after 96 hrs post infection (reference value: 0%); type: functional; design: scale not given: the % may be the effect or the level left
Plasmodium berghei [20] = assay: Antimalarial activity against Plasmodium berghei infected in mouse assessed as reduction in parasitemia in blood at 50 mg/kg, po administered for 4 times starting from 4 to 72 hrs and measured after 96 hrs post infection (reference value: 0%); type: functional; design: scale not given: the % may be the effect or the level left
Plasmodium berghei [21] = assay: Antimalarial activity against Plasmodium berghei infected in mouse assessed as reduction in parasitemia in blood at 10 mg/kg, po administered for 4 times starting from 4 to 72 hrs and measured after 96 hrs post infection (reference value: 0%); type: functional; design: scale not given: the % may be the effect or the level left
Plasmodium berghei [22] = assay: Antimalarial activity against Plasmodium berghei infected in mouse assessed as mean survival days at 30 mg/kg, po administered for 4 times starting from 4 to 72 hrs and monitered for 30 days (reference value: 4 days); type: functional; settings: time 30 day
Plasmodium berghei [23] = assay: Antimalarial activity against Plasmodium berghei infected in mouse assessed as mean survival days at 50 mg/kg, po administered for 4 times starting from 4 to 72 hrs and monitered for 30 days (reference value: 4 days); type: functional; settings: time 30 day
Plasmodium berghei [24] = assay: Antimalarial activity against Plasmodium berghei infected in mouse assessed as reduction in parasitemia in blood at 3 mg/kg, po administered for 4 times starting from 4 to 72 hrs and measured after 96 hrs post infection (reference value: 0 %); type: functional; design: scale not given: the % may be the effect or the level left
[25] = Elimination half life in mouse infected with Plasmodium berghei at 3 mg/kg, po administered as single dose and measured for 24 hrs by LC-MS/MS analysis; type: ADME, organism-based; settings: in vivo, read-out: beta t1/2 (converted)
[26] = Elimination half life in mouse infected with Plasmodium berghei at 10 mg/kg, po administered as single dose and measured for 24 hrs by LC-MS/MS analysis; type: ADME, organism-based; settings: in vivo, read-out: beta t1/2 (converted)
[27] = Elimination half life in mouse infected with Plasmodium berghei at 30 mg/kg, po administered as single dose and measured for 24 hrs by LC-MS/MS analysis; type: ADME, organism-based; settings: in vivo, read-out: beta t1/2 (converted)
[28] = Half life in mouse infected with Plasmodium berghei at 3 mg/kg, po administered as single dose and measured for 24 hrs by LC-MS/MS analysis; type: ADME, organism-based; settings: in vivo
[29] = Half life in mouse infected with Plasmodium berghei at 10 mg/kg, po administered as single dose and measured for 24 hrs by LC-MS/MS analysis; type: ADME, organism-based; settings: in vivo
[30] = Half life in mouse infected with Plasmodium berghei at 30 mg/kg, po administered as single dose and measured for 24 hrs by LC-MS/MS analysis; type: ADME, organism-based; settings: in vivo
[31] = Tmax in mouse infected with Plasmodium berghei at 3 mg/kg, po administered as single dose and measured for 24 hrs by LC-MS/MS analysis; type: ADME, organism-based; settings: in vivo
[32] = Tmax in mouse infected with Plasmodium berghei at 10 mg/kg, po administered as single dose and measured for 24 hrs by LC-MS/MS analysis; type: ADME, organism-based; settings: in vivo
[33] = Tmax in mouse infected with Plasmodium berghei at 30 mg/kg, po administered as single dose and measured for 24 hrs by LC-MS/MS analysis; type: ADME, organism-based; settings: in vivo
[34] = Cmax in mouse infected with Plasmodium berghei at 3 mg/kg, po administered as single dose and measured for 24 hrs by LC-MS/MS analysis; type: ADME, organism-based; design: time 24 hrs, dose 3 mg/kg, route po; settings: in vivo
[35] = Cmax in mouse infected with Plasmodium berghei at 10 mg/kg, po administered as single dose and measured for 24 hrs by LC-MS/MS analysis; type: ADME, organism-based; design: dose 10 mg/kg, time 24 hrs, route po; settings: in vivo
[36] = Cmax in mouse infected with Plasmodium berghei at 30 mg/kg, po administered as single dose and measured for 24 hrs by LC-MS/MS analysis; type: ADME, organism-based; design: dose 30 mg/kg, time 24 hrs, route po; settings: in vivo
[37] = AUC(0 to t) in mouse infected with Plasmodium berghei at 3 mg/kg, po administered as single dose and measured for 24 hrs by LC-MS/MS analysis; type: ADME, organism-based; design: dose 3 mg/kg, time 24 hrs, route po; settings: in vivo
[38] = AUC(0 to t) in mouse infected with Plasmodium berghei at 10 mg/kg, po administered as single dose and measured for 24 hrs by LC-MS/MS analysis; type: ADME, organism-based; design: time 24 hrs, dose 10 mg/kg, route po; settings: in vivo
[39] = AUC(0 to t) in mouse infected with Plasmodium berghei at 30 mg/kg, po administered as single dose and measured for 24 hrs by LC-MS/MS analysis; type: ADME, organism-based; design: dose 30 mg/kg, time 24 hrs, route po; settings: in vivo
[40] = Observed AUC(0 to infinity) in mouse infected with Plasmodium berghei at 3 mg/kg, po administered as single dose and measured for 24 hrs by LC-MS/MS analysis; type: ADME, organism-based; design: dose 3 mg/kg, time 24 hrs, route po; settings: in vivo
[41] = Observed AUC(0 to infinity) in mouse infected with Plasmodium berghei at 10 mg/kg, po administered as single dose and measured for 24 hrs by LC-MS/MS analysis; type: ADME, organism-based; design: dose 10 mg/kg, time 24 hrs, route po; settings: in vivo
[42] = Observed AUC(0 to infinity) in mouse infected with Plasmodium berghei at 30 mg/kg, po administered as single dose and measured for 24 hrs by LC-MS/MS analysis; type: ADME, organism-based; design: dose 30 mg/kg, time 24 hrs, route po; settings: in vivo

Structure (SMILES): COc1ccc(/N=C(\N)CC(O)c2cc3c(F)cc(F)cc3c3cc(C(F)(F)F)ccc23)cc1.Cl (configuration not stated)
- IC50 (Plasmodium falciparum [1]): 5 nM
- IC50 (Plasmodium falciparum [2]): 12 nM
- IC50 at 24 h [3]: 4300 nM
- selectivity ratio [4]: 860
- IC50 at 24 h [5]: 46100 nM
- IC50 at 24 h [6]: 36800 nM
- degraded at 24 h [7]: 1%
- degraded at 24 h [8]: 0.1%
- remaining at 40 min, 2 µM [9]: 86%
- CLH [10]: 9 µL/min/mg
- IC50 [11]: 190 nM
- IC50 (Plasmodium falciparum [12]): 8.4 nM
- inhibition (Plasmodium falciparum [13]): Active
- inhibition (Plasmodium falciparum [14]): Active
- IC50 (Plasmodium falciparum [15]): 15.3 nM
- IC50 (Plasmodium falciparum [16]): 15 nM
- fold change (FC) (Plasmodium falciparum [17]): 3
- fold change (FC) (Plasmodium falciparum [18]): 3
- Activity (Plasmodium berghei [19]): 99.9%
- Activity (Plasmodium berghei [20]): 99.8%
- Activity (Plasmodium berghei [21]): 99.9%
- MSD (Plasmodium berghei [22]): 17 days
- MSD (Plasmodium berghei [23]): 27 days
- Activity (Plasmodium berghei [24]): 0%
- half-life [25]: 7.58 min
- half-life [26]: 7.91 min
- half-life [27]: 4.18 min
- t1/2 [28]: 313 min
- t1/2 [29]: 248 min
- t1/2 [30]: 421 min
- Tmax [31]: 60 min
- Tmax [32]: 60 min
- Tmax [33]: 60 min
- Cmax [34]: 3.3 ng/mL
- Cmax [35]: 23 ng/mL
- Cmax [36]: 57.3 ng/mL
- AUCt [37]: 20.4 ng·h/mL
- AUCt [38]: 192.1 ng·h/mL
- AUCt [39]: 783.1 ng·h/mL
- AUC [40]: 21.5 ng·h/mL
- AUC [41]: 199.7 ng·h/mL
- AUC [42]: 848.1 ng·h/mL
